Data as given in the NIST ThermoML archive (doi:10.1016/j.fluid.2015.01.002).

What was measured:
[1] = 298.15 K; 101.33 kPa; Liquid; Vibrating tube method
[2] = refractive index (Na D-line) (dimensionless); conditions: 298.15 K; 101.33 kPa; Liquid; Standard Abbe refractometry
[3] = xn = mol fraction of the nth substance listed; conditions: 298.15 K, 101 kPa, Liquid, Vibrating tube method
[4] = refractive index (Na D-line) (dimensionless); xn = mol fraction of the nth substance listed; conditions: 298.15 K, 101 kPa, Liquid, Standard Abbe refractometry

Cc1ccc(C)cc1 [1,4-dimethylbenzene]
Conditions	mass density [kg/m3]	refractive index
[1]	856.78	–
[2]	–	1.49281

Cc1ccc(C)cc1 [1,4-dimethylbenzene] + CC#N
Conditions	mass density, [3] [kg/m3]	refractive index, [4]
x1 = 0.05	785.5	1.3575
x1 = 0.1	793.4	1.3717
x1 = 0.2	806.77	1.3975
x1 = 0.3	817.69	1.4181
x1 = 0.4	826.78	1.4353
x1 = 0.5	834.35	1.4498
x1 = 0.6	840.73	1.4642
x1 = 0.7	846.09	1.4757
x1 = 0.8001	850.43	1.4835
x1 = 0.9001	854.1	1.4889
x1 = 0.9503	855.52	1.4913

COCCO [2-methoxyethan-1-ol]
Conditions	mass density [kg/m3]	refractive index
[1]	959.73	–
[2]	–	1.39981

COCCO [2-methoxyethan-1-ol] + Cc1ccc(C)cc1
Conditions	mass density, [3] [kg/m3]	refractive index, [4]
x2 = 0.0499	952.02	1.4069
x2 = 0.0999	944.39	1.4136
x2 = 0.1999	930.07	1.4253
x2 = 0.3	917.28	1.4367
x2 = 0.3999	905.75	1.4462
x2 = 0.5001	895.38	1.4557
x2 = 0.6	885.92	1.4641
x2 = 0.6999	877.19	1.4717
x2 = 0.7999	869.23	1.4793
x2 = 0.8999	862.2	1.4862
x2 = 0.9499	859.28	1.4895

COCCO [2-methoxyethan-1-ol] + Cc1ccccc1
Conditions	mass density, [3] [kg/m3]	refractive index, [4]
x2 = 0.05	953.61	1.4048
x2 = 0.0998	947.42	1.4113
x2 = 0.1999	935.21	1.4233
x2 = 0.3001	923.65	1.434
x2 = 0.4	912.84	1.4437
x2 = 0.4999	902.65	1.453
x2 = 0.6	893.14	1.4616
x2 = 0.7001	884.22	1.4701
x2 = 0.8	875.94	1.4782
x2 = 0.9	868.48	1.486
x2 = 0.9498	865.12	1.4899

COCCO [2-methoxyethan-1-ol] + c1ccccc1
Conditions	mass density, [3] [kg/m3]	refractive index, [4]
x2 = 0.05	955.11	1.4054
x2 = 0.0998	950.35	1.4105
x2 = 0.2001	940.54	1.4193
x2 = 0.2998	930.95	1.4286
x2 = 0.4	921.55	1.4385
x2 = 0.4999	912.55	1.4486
x2 = 0.5999	903.8	1.4586
x2 = 0.7	895.3	1.4679
x2 = 0.8	887.18	1.477
x2 = 0.8998	879.76	1.4864
x2 = 0.95	876.36	1.4916

CC#N [acetonitrile]
Conditions	mass density [kg/m3]	refractive index
[1]	776.64	–
[2]	–	1.34143

CC#N [acetonitrile] + Cc1ccccc1
Conditions	mass density, [3] [kg/m3]	refractive index, [4]
x2 = 0.0499	784.94	1.3557
x2 = 0.1	792.57	1.3686
x2 = 0.2	806.07	1.3917
x2 = 0.3	817.61	1.412
x2 = 0.4	827.52	1.4308
x2 = 0.4999	835.99	1.4457
x2 = 0.6	843.26	1.458
x2 = 0.6999	849.43	1.4683
x2 = 0.8001	854.74	1.4785
x2 = 0.9	858.99	1.487
x2 = 0.9498	860.78	1.4907

CC#N [acetonitrile] + c1ccccc1
Conditions	mass density, [3] [kg/m3]	refractive index, [4]
x2 = 0.05	784.35	1.3523
x2 = 0.1	791.68	1.3638
x2 = 0.2	805.24	1.3823
x2 = 0.2998	817.45	1.402
x2 = 0.4001	828.54	1.4217
x2 = 0.4999	838.46	1.4378
x2 = 0.6002	847.41	1.4531
x2 = 0.7004	855.36	1.466
x2 = 0.7997	862.34	1.4789
x2 = 0.9002	868.48	1.4892
x2 = 0.9506	871.14	1.4929

c1ccccc1 [benzene]
Conditions	mass density [kg/m3]	refractive index
[1]	873.73	–
[2]	–	1.49749

CCCCCCCCCCCCCCCC [hexadecane]
Conditions	mass density [kg/m3]	refractive index
[1]	770.3	–
[2]	–	1.43225

Cc1ccccc1 [toluene]
Conditions	mass density [kg/m3]	refractive index
[1]	862.34	–
[2]	–	1.49367
